# Reference: US20210198277A1, “AMINE-SUBSTITUTED ARYL OR HETEROARYL COMPOUNDS” (Epizyme, Inc., priority 2016, published 2021)
# Target: T1, EHMT2 (Homo sapiens, UniProt Q96KQ7)
# T1 construct: host or cells: MDA-MB-231
# T1 sequence (Q96KQ7 1-1210): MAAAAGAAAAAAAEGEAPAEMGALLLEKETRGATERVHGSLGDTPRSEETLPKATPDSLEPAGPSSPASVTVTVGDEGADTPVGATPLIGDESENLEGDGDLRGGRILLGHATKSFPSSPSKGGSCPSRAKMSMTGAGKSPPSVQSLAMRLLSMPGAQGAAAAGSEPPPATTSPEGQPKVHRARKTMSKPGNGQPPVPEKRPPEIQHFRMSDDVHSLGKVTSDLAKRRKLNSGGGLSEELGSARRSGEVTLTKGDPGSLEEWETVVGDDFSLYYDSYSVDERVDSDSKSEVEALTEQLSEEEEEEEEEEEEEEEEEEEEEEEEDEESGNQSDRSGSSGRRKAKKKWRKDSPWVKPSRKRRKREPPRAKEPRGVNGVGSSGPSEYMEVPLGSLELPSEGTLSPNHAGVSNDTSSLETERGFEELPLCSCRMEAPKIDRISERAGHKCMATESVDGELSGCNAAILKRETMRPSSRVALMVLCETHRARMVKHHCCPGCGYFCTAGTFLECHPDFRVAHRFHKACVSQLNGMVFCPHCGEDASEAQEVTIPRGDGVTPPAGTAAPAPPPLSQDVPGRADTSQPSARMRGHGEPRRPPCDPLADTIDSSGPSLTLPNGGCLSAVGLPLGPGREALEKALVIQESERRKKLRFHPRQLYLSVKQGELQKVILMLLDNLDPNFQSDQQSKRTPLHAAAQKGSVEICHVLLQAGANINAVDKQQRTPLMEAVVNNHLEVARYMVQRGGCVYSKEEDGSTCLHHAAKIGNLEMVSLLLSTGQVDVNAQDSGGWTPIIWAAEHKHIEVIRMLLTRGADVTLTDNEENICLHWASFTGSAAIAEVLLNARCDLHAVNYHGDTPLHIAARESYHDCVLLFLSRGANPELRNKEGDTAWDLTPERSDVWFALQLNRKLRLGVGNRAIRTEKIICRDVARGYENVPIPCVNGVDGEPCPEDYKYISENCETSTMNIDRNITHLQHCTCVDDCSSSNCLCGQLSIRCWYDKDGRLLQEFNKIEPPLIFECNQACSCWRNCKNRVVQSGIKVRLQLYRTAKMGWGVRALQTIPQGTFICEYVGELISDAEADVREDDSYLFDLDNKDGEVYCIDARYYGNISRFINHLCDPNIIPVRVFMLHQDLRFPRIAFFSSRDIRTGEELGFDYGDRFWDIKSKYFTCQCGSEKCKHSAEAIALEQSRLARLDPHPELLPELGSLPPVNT
# Assay: MDA-MB-231 H3K9me2 in-cell Western assay (EHMT2 ICW)
# Type: cell-based
# Details: Table II; MDA-MB-231 H3K9me2 in-cell Western; read-out: EHMT2 ICW (IC50 μM)
# How it was run: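 Cellular dimethyl-H3K9 is quantified by in-cell Western in MDA-MB-231 cells treated with compound for 48 h. The H3K9me2 signal at 800 nm is normalised to DRAQ5 nuclear stain at 700 nm. IC50 is calculated from triplicate concentration points by nonlinear regression.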
row,Compound,IC50 [µM]
1,"CNc1ccnc(Nc2ccc(OC)c(OCCCN3CCCC3)c2)n1 [Compound 1, N^2-(4-methoxy-3-(3-(pyrrolidin-1-yl)propoxy)phenyl)-N^4-methylpyrimidine-2,4-diamine]",< 0.1
2,"COc1ccc(Nc2nccc(NCC3CCN(CC(F)F)CC3)n2)cc1OCCCN1CCCC1 [Compound 2, N^4-((1-(2,2-difluoroethyl)piperidin-4-yl)methyl)-N^2-(4-methoxy-3-(3-(pyrrolidin-1-yl)propoxy)phenyl)pyrimidine-2,4-diamine]",0.1 to 1
3,"COc1ccc(Nc2nccc(NCC3CCOCC3)n2)cc1OCCCN1CCCC1 [Compound 3, N^2-(4-methoxy-3-(3-(pyrrolidin-1-yl)propoxy)phenyl)-N^4-((tetrahydro-2H-pyran-4-yl)methyl)pyrimidine-2,4-diamine]",0.1 to 1
4,"COc1ccc(Nc2nccc(NCC3CCN(CC(F)(F)F)CC3)n2)cc1OCCCN1CCCC1 [Compound 4, N^2-(4-methoxy-3-(3-(pyrrolidin-1-yl)propoxy)phenyl)-N^4-((1-(2,2,2-trifluoroethyl)piperidin-4-yl)methyl)pyrimidine-2,4-diamine]",0.1 to 1
5,"COc1ccc(Nc2nccc(NC3CCOCC3)n2)cc1OCCCN1CCCC1 [Compound 5, N^2-(4-methoxy-3-(3-(pyrrolidin-1-yl)propoxy)phenyl)-N^4-(tetrahydro-2H-pyran-4-yl)pyrimidine-2,4-diamine]",0.1 to 1
6,COc1ccc(Nc2nccc(NCC(=O)N3CCOCC3)n2)cc1OCCCN1CCCC1 [Compound 51],1 to 10
7,COc1ccc(Nc2nccc(NCC(=O)N(C)c3ccccc3)n2)cc1OCCCN1CCCC1 [Compound 52],1 to 10
8,COc1ccc(Nc2nccc(N3Cc4cn[nH]c4C3)n2)cc1OCCCN1CCCC1 [Compound 53],1 to 10
9,COc1ccc(Nc2nccc(NC3CCN(C(C)=O)CC3)n2)cc1OCCCN1CCCC1 [Compound 54],1 to 10
10,COc1ccc(Nc2ncc(C)c(NCC3CCN(C(C)=O)CC3)n2)cc1OCCCN1CCCC1 [Compound 55],1 to 10
11,COc1ccc(Nc2nccc(N(C)Cc3ccncc3)n2)cc1OCCCN1CCCC1 [Compound 56],1 to 10
12,COc1ccc(Nc2nccc(NCC3CCN(C(C)=O)CC3)n2)cc1COCCN1CC(F)C1 [Compound 57],1 to 10
13,c1cc(Nc2nccc(NCC3CCNCC3)n2)cc(OCCCN2CCCC2)c1 [Compound 88],1 to 10
14,COc1ccc(Nc2nccc(NCC3CCNCC3)n2)cc1OCCCN1CCCC1 [Compound 90],> 10

# Same assay, conditions: Table III; MDA-MB-231 H3K9me2 in-cell Western; read-out: EHMT2 ICW (IC50 μM)
row,Compound,IC50 [µM]
1,"CNc1ccnc(Nc2ccc(OC)c(OC[C@H](O)CN3CCCC3)c2)n1 (single isomer, unassigned) [Compound 376]",1 to 10
2,"CNc1ccnc(Nc2ccc(OC)c(OC[C@@H](O)CN3CCCC3)c2)n1 (single isomer, unassigned) [Compound 377]",> 10
3,"CNc1ccnc(Nc2ccc(OC)c(OCC3CCN(C)C3)c2)n1 (single isomer, unassigned) [Compound 415]",1 to 10
4,"CNc1ccnc(Nc2ccc(OC)c(OCC3CCN(C)C3)c2)n1 (single isomer, unassigned) [Compound 416]",0.1 to 1
5,"CNc1cc(C)nc(Nc2ccc(OC)c(OCC3CCN(C)C3)c2)n1 (single isomer, unassigned) [Compound 417]",1 to 10
6,"CNc1cc(C)nc(Nc2ccc(OC)c(OCC3CCN(C)C3)c2)n1 (single isomer, unassigned) [Compound 418]",< 0.1
7,"CNc1cc(OC)nc(Nc2ccc(OC)c(OCCCN3CCCC3)c2)n1 [Compound 261, 6-methoxy-N^2-(4-methoxy-3-(3-(pyrrolidin-1-yl)propoxy)phenyl)-N^4-methylpyrimidine-2,4-diamine]",> 10
8,"CNc1ccnc(Nc2ccc3c(c2)C(=O)N(CCN2CCCC2)CC3)n1 [Compound 264, 7-((4-(methylamino)pyrimidin-2-yl)amino)-2-(2-(pyrrolidin-1-yl)ethyl)-3,4-dihydroisoquinolin-1(2H)-one]",> 10
9,"COc1ccc(Nc2cccc3[nH]ccc23)cc1OCCCN1CCCC1 [Compound 265, N-(4-methoxy-3-(3-(pyrrolidin-1-yl)propoxy)phenyl)-1H-indol-4-amine]",> 10
10,"COc1ccc(Nc2nccc3[nH]ccc23)cc1OCCCN1CCCC1 [Compound 266, N-(4-methoxy-3-(3-(pyrrolidin-1-yl)propoxy)phenyl)-1H-pyrrolo[3,2-c]pyridin-4-amine]",1 to 10
11,CNc1nccc(Nc2ccc(OC)c(OCCCN3CCCC3)c2)n1 [Compound 355],0.1 to 1
12,CNc1cc(C)nc(Nc2ccc(F)c(OCCCN3CCCC3)c2)n1 [Compound 356],> 10
13,CNc1nc(Nc2ccc(OC)c(OCCCN3CCCC3)c2)ncc1C#N [Compound 357],> 10
14,CNc1nc(Nc2ccc(OC)c(OCCCN3CCCC3)c2)ncc1C(F)(F)F [Compound 358],> 10
15,CNc1ncc(C(F)(F)F)c(Nc2ccc(OC)c(OCCCN3CCCC3)c2)n1 [Compound 359],> 10
16,CNc1nc(Nc2ccc(OC)c(OCCCN3CCCC3)c2)nc(C)c1F [Compound 360],0.1 to 1
17,CNc1ccnc(Nc2ccc(OC)c(OCCN3CCOCC3)c2)n1 [Compound 361],> 10
18,CNc1cc(C(F)(F)F)nc(Nc2ccc(OC)c(OCCCN3CCCC3)c2)n1 [Compound 362],> 10
19,CNc1ccnc(Nc2ccc3c(c2)N(C(=O)CCN(C)C)CC3)n1 [Compound 363],> 10
20,CCc1cc(NC)nc(Nc2ccc(OC)c(OCCCN3CCCC3)c2)n1 [Compound 364],0.1 to 1
21,COc1ccc(Nc2nccc(CNC3CCOCC3)n2)cc1OCCCNc1ccccc1 [Compound 365],> 10
22,COc1ccc(Nc2cnnc(NCC3CCN(C(C)=O)CC3)c2)cc1OCCCN1CCCC1 [Compound 366],> 10

row,Compound,IC50 [µM]
1,COc1ccc(Nc2nccc(NCC3CCOCC3)n2)cc1OC1CC2(C1)CN(C)C2 [Compound 367],> 10
2,CNc1ccnc(Nc2ccc(F)c(OCCCN3CCCC3)c2)n1 [Compound 368],> 10
3,COc1ccc(Nc2nccc(N)n2)cc1OCCCN1CCCC1 [Compound 369],1 to 10
4,CNc1cnnc(Nc2ccc(OC)c(OCCCN3CCCC3)c2)c1 [Compound 370],> 10
5,CNc1cncc(Nc2ccc(OC)c(OCCCN3CCCC3)c2)n1 [Compound 371],> 10
6,CNc1cc(Nc2cc(OCCCN3CCCC3)c(OC)cn2)ccn1 [Compound 372],0.1 to 1
7,COc1ccc(Nc2nccc3[nH]ncc23)cc1OCCCN1CCCC1 [Compound 373],> 10
8,COc1ccc(Nc2ccnc3[nH]ccc23)cc1OCCCN1CCCC1 [Compound 374],> 10
9,CC(C)Nc1ccnc(Nc2cccc(OCCCN3CC[C@@H](F)C3)c2)n1 [Compound 375],> 10
10,COc1ccc(Nc2nccc(NC(C)C3CCOCC3)n2)cc1OCCCN1CCCC1 (stereo not drawn) [Compound 378],0.1 to 1
11,CNc1ccnc(Nc2ccc(OC)c(OCCCN3CCCC3)c2)c1 [Compound 379],1 to 10
12,CNc1ccnc(Nc2ccc3ccn(CCN4CCCC4)c(=O)c3c2)n1 [Compound 381],> 10
13,CNc1ccnc(Nc2ccc(OC)c(COCCN3CCCC3)c2)n1 [Compound 382],0.1 to 1
14,CNc1ccnc(Nc2cccc(COCCN3CCCC3)c2)n1 [Compound 383],> 10
15,CNc1cc(C#N)nc(Nc2ccc(OC)c(OCCCN3CCCC3)c2)n1 [Compound 384],> 10
16,CCc1cc(NC)nc(Nc2ccc(OC)c(OCCCN3CC[C@@H](F)C3)c2)n1 [Compound 385],1 to 10
17,CNc1ccnc(Nc2ccc3cnn(CCN(C)C)c3c2)n1 [Compound 386],> 10
18,CNc1ccnc(Nc2ccc(OC)c(OCCCN(C)C)c2)n1 [Compound 387],0.1 to 1
19,"CNc1ccnc(Nc2ccc3cnn(CCCN(C)C)c3c2)n1 [Compound 388, N^2-(1-(3-(dimethylamino)propyl)-1H-indazol-6-yl)-N^4-methylpyrimidine-2,4-diamine]",> 10
20,CNc1ccnc(Nc2ccc3c(C)nn(CCCN(C)C)c3c2)n1 [Compound 389],> 10
21,CNc1ccnc(Nc2ccc(OC)c(OCCCN3CCCCC3)c2)n1 [Compound 390],0.1 to 1
